Test system: histamine H2 -receptors
Assay: inhibition of histamine-stimulated secretion of gastric acid from Heidenhain pouch dogs
Assay type: in vivo
Conditions: Heidenhain pouch dog, 0.25 micromol kg^-1 i.v.
Method: Heidenhain pouch dogs are prepared by the following procedure. The abdomen of a male beagle (14-16 kg) is opened and the stomach is exteriorized. Blood vessels are ligated and cut at two places on the greater curvature to enable a piece of the fundus of the stomach to be cut away from the main stomach to form the pouch. The incision lines are sewn together to enable normal digestion. A stainless steel cannula is inserted into the pouch and the end not in the pouch is exteriorized through a stab wound in the abdominal wall to allow drainage of gastric juice under gravity. Finally, the abdomen is closed by a continuous suture. The dogs are ready for experimental use approximately three weeks after operation. The compounds of the invention are tested in Heidenhain pouch dogs by the following procedure. The dogs are starved for approximately 20 hours prior to the experiment and are then placed in Pavlov stands. A polythene cannula is placed in a leg vein and saline is infused for about one hour. A check is made that there is no basal acid secretion. Histamine (20 micromoles/hour) or pentagastrin (8 micrograms/kg/hour) is continuously infused in place of the saline. A plateau of acid secretion is reached after 11/2 to 2 hours and the test compound is administered intravenously or orally (contained within a hard gelatin capsule). Gastric juice is collected by drainage under gravity into perspex tubes attached to the gastric cannula. Normally samples are collected over fifteen minute periods. The volumes of the samples are measured and aliquots are titrated to pH 7.4 with 0.1N sodium hydroxide. Acid secretion is expressed as the product of the volume and acid concentration.

| SMILES | duration of action | mean peak inhibition of histamine-stimulated gastric acid secretion |
| --- | --- | --- |
| N=C(N)Nc1nc(CSCCNc2ncc(Cc3cccnc3)c(=O)[nH]2)cs1 [Example 1, 2-[2-(2-guanidino-4-thiazolylmethylthio)ethylamino]-5-(3-pyridylmethyl)-4-pyrimidone] | extended duration of action | over 50% |
| Cc1ccc(Cc2cnc(NCCSCc3csc(NC(=N)N)n3)[nH]c2=O)cn1 [Example 3, 2-[2-(2-guanidino-4-thiazolylmethylthio)ethylamino]-5-(6-methyl-3-pyridylmethyl)-4-pyrimidone] | extended duration of action | over 50% |

Reference: patent US4521418A, “Guanidinothiazolyl derivatives” (Smith Kline & French Laboratories Limited, priority 1979, dated 1985)
